Reference: PubChem BioAssay (NCI)
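Each compound was tested at five concentrations against cells in 96-well plates for 48 hours. The concentration for 50% growth inhibition is given as GI50. At the TGI there is no net growth.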

How the values were obtained:
Test in all cases: inhibition of tumour cell growth, NCI panel, 48 h
EKVX NSCLC = tested on: EKVX NSCLC
HCC-2998 colon = tested on: HCC-2998 colon
K-562 leukemia = tested on: K-562 leukemia
OVCAR-5 ovarian = tested on: OVCAR-5 ovarian
RXF 393 renal = tested on: RXF 393 renal
SF-539 CNS = tested on: SF-539 CNS
SK-MEL-28 melanoma = tested on: SK-MEL-28 melanoma
SW-620 colon = tested on: SW-620 colon
COLO 205 colon = tested on: COLO 205 colon
T-47D breast = tested on: T-47D breast

Cc1cc(O)c2c(c1)C(O)(c1ccc3c(c1O)C(=O)c1c(O)cc(C)cc1C3(O)C1OC(CO)C(O)C(O)C1O)c1cccc(O)c1C2=O (centres undefined)
TGI (EKVX NSCLC): 28.2 µM | TGI (HCC-2998 colon): 29.5 µM | TGI (K-562 leukemia): 18.9 µM | TGI (OVCAR-5 ovarian): 32.3 µM | TGI (RXF 393 renal): 24.7 µM | TGI (SF-539 CNS): 26.5 µM | TGI (SK-MEL-28 melanoma): 28.9 µM | TGI (SW-620 colon): 34 µM

O=C(c1ccccc1)c1c(CC(O)c2cccnc2)n(C(=O)c2ccccc2)c2ccccc12 (centres undefined)
TGI (COLO 205 colon): 40.6 µM | TGI (HCC-2998 colon): 35 µM | TGI (K-562 leukemia): 75.7 µM | TGI (OVCAR-5 ovarian): 37.6 µM | TGI (SF-539 CNS): 30.6 µM | TGI (SK-MEL-28 melanoma): 31.5 µM | TGI (SW-620 colon): 74.9 µM

CC(C)N(C(=O)C12C3C4C1C1C2C3C41C(O)C(C)(C)C)C(C)C (centres undefined)
TGI (COLO 205 colon): > 50 µM | TGI (EKVX NSCLC): > 50 µM | TGI (HCC-2998 colon): > 50 µM | TGI (K-562 leukemia): > 50 µM | TGI (SF-539 CNS): > 50 µM | TGI (SK-MEL-28 melanoma): > 50 µM | TGI (SW-620 colon): > 50 µM

Cc1cc([N+](=O)[O-])c(C)c2c1[nH]c1ccc(/C(CCC3CCCC3)=N\N)cc12
TGI (COLO 205 colon): 33.1 µM | TGI (EKVX NSCLC): 32 µM | TGI (HCC-2998 colon): 30.9 µM | TGI (K-562 leukemia): 55.2 µM | TGI (SF-539 CNS): 34.8 µM | TGI (SK-MEL-28 melanoma): 34 µM | TGI (SW-620 colon): 33.5 µM

Cc1c(C)c2cc3c(=O)ccoc3c(C)c2oc1=O
TGI (COLO 205 colon): > 100 µM | TGI (EKVX NSCLC): > 100 µM | TGI (HCC-2998 colon): > 100 µM | TGI (K-562 leukemia): > 100 µM | TGI (OVCAR-5 ovarian): > 100 µM | TGI (RXF 393 renal): > 100 µM | TGI (SF-539 CNS): > 100 µM | TGI (SK-MEL-28 melanoma): > 100 µM | TGI (SW-620 colon): > 100 µM

O=C1[C@@H](c2ccc(Cl)cc2)[C@H]2CC=C[C@H]2N1O
TGI (COLO 205 colon): > 100 µM | TGI (EKVX NSCLC): > 100 µM | TGI (HCC-2998 colon): > 100 µM | TGI (K-562 leukemia): > 100 µM | TGI (RXF 393 renal): > 100 µM | TGI (SF-539 CNS): > 100 µM | TGI (SK-MEL-28 melanoma): > 100 µM | TGI (SW-620 colon): > 100 µM

COc1ccc2nc(-c3ccccc3)cc(Nc3cccc(/C(C)=N\O)c3)c2c1
GI50 (COLO 205 colon): 21.4 µM | TGI (COLO 205 colon): > 100 µM | GI50 (EKVX NSCLC): 19.2 µM | TGI (EKVX NSCLC): 86.9 µM | GI50 (HCC-2998 colon): 46.2 µM | TGI (HCC-2998 colon): > 100 µM | GI50 (K-562 leukemia): 4.12 µM | TGI (K-562 leukemia): > 100 µM | GI50 (OVCAR-5 ovarian): 33.7 µM | TGI (OVCAR-5 ovarian): > 100 µM | GI50 (SF-539 CNS): 6.61 µM | TGI (SF-539 CNS): 24.8 µM | GI50 (SK-MEL-28 melanoma): 57.7 µM | TGI (SK-MEL-28 melanoma): > 100 µM | GI50 (SW-620 colon): 19.4 µM | TGI (SW-620 colon): > 100 µM | GI50 (T-47D breast): 4.01 µM | TGI (T-47D breast): > 100 µM

C=C(C)C1CC2C(C)=C(OC(C)=O)C1n1c(=O)c3cc4ccccc4cc3c(=O)n12 (centres undefined)
TGI (COLO 205 colon): > 100 µM | TGI (EKVX NSCLC): > 100 µM | TGI (HCC-2998 colon): > 100 µM | TGI (K-562 leukemia): > 100 µM | TGI (OVCAR-5 ovarian): > 100 µM | TGI (RXF 393 renal): > 90.9 µM | TGI (SF-539 CNS): > 100 µM | TGI (SK-MEL-28 melanoma): > 100 µM | TGI (SW-620 colon): > 100 µM

CC[O-].CC[O-].O=C1C(=C([O-])c2ccccc2)C(=O)c2ccccc21.O=C1C(=C([O-])c2ccccc2)C(=O)c2ccccc21.[Ti+4]
GI50 (COLO 205 colon): 29.2 µM | TGI (COLO 205 colon): > 100 µM | GI50 (EKVX NSCLC): 24.3 µM | TGI (EKVX NSCLC): > 100 µM | GI50 (HCC-2998 colon): > 100 µM | TGI (HCC-2998 colon): > 100 µM | GI50 (K-562 leukemia): > 100 µM | TGI (K-562 leukemia): > 100 µM | GI50 (OVCAR-5 ovarian): > 100 µM | TGI (OVCAR-5 ovarian): > 100 µM | GI50 (RXF 393 renal): > 100 µM | TGI (RXF 393 renal): > 100 µM | GI50 (SF-539 CNS): > 100 µM | TGI (SF-539 CNS): > 100 µM | GI50 (SK-MEL-28 melanoma): > 10 µM | TGI (SK-MEL-28 melanoma): > 10 µM | GI50 (SW-620 colon): > 100 µM | TGI (SW-620 colon): > 100 µM

O=[N+]([O-])c1ccc(N=Nc2c(O)[nH]c3ccc([N+](=O)[O-])cc23)cc1
TGI (COLO 205 colon): > 100 µM | TGI (EKVX NSCLC): > 100 µM | TGI (K-562 leukemia): > 100 µM | TGI (RXF 393 renal): 36.5 µM | TGI (SF-539 CNS): 33.4 µM | TGI (SK-MEL-28 melanoma): 47.4 µM | TGI (SW-620 colon): 29.5 µM

O=C(CC(C(=O)c1cccs1)c1ccc2c(c1)OCO2)c1ccc(Br)cc1 (centres undefined)
TGI (COLO 205 colon): > 100 µM | TGI (EKVX NSCLC): > 100 µM | TGI (HCC-2998 colon): > 100 µM | TGI (K-562 leukemia): > 100 µM | TGI (SK-MEL-28 melanoma): > 100 µM | TGI (SW-620 colon): > 100 µM | TGI (T-47D breast): > 100 µM

Cc1cc(C)c2c(c1)CN1CN2Cc2cc(C)cc(C)c21
TGI (COLO 205 colon): 42.6 µM | TGI (EKVX NSCLC): 35.1 µM | TGI (K-562 leukemia): > 100 µM | TGI (OVCAR-5 ovarian): > 100 µM | TGI (RXF 393 renal): 22.4 µM | TGI (SK-MEL-28 melanoma): 44.4 µM | TGI (SW-620 colon): > 100 µM

Cc1cc(Cl)ccc1NC(=O)C(=O)Cc1nc2ccc(C(=O)c3ccccc3)cc2[nH]c1=O
TGI (COLO 205 colon): > 100 µM | TGI (EKVX NSCLC): > 100 µM | TGI (HCC-2998 colon): > 100 µM | TGI (RXF 393 renal): > 100 µM | TGI (SF-539 CNS): > 100 µM | TGI (SK-MEL-28 melanoma): > 100 µM | TGI (SW-620 colon): > 100 µM

COC(=O)C1=CCON(c2ccccc2)C1c1ccccc1 (centres undefined)
TGI (COLO 205 colon): > 100 µM | TGI (EKVX NSCLC): > 100 µM | TGI (HCC-2998 colon): > 100 µM | TGI (K-562 leukemia): > 100 µM | TGI (OVCAR-5 ovarian): > 100 µM | TGI (RXF 393 renal): > 100 µM | TGI (SF-539 CNS): > 100 µM | TGI (SK-MEL-28 melanoma): > 100 µM | TGI (SW-620 colon): > 100 µM

COc1ccc(OC)c(-c2cc(-c3ccccc3)nn2-c2ccc(S(=O)(=O)NC(C)=O)cc2)c1
GI50 (EKVX NSCLC): 22.8 µM | TGI (EKVX NSCLC): 41.8 µM | GI50 (HCC-2998 colon): 3.08 µM | TGI (HCC-2998 colon): 13.8 µM | GI50 (K-562 leukemia): 3.36 µM | TGI (K-562 leukemia): 9.76 µM | GI50 (OVCAR-5 ovarian): 16.9 µM | TGI (OVCAR-5 ovarian): 31.3 µM | GI50 (RXF 393 renal): 4.07 µM | TGI (RXF 393 renal): 9.31 µM | GI50 (SF-539 CNS): 28.1 µM | TGI (SF-539 CNS): 60.4 µM | GI50 (SW-620 colon): 3.52 µM | TGI (SW-620 colon): 9.15 µM

Nc1cc(N)c2nc(-c3ccccc3)c(Oc3ccc(F)cc3)nc2c1
GI50 (COLO 205 colon): 20 µM | TGI (COLO 205 colon): 36.5 µM | GI50 (EKVX NSCLC): 14.6 µM | TGI (EKVX NSCLC): 33.7 µM | GI50 (K-562 leukemia): 10.9 µM | TGI (K-562 leukemia): > 100 µM | GI50 (OVCAR-5 ovarian): 20.6 µM | TGI (OVCAR-5 ovarian): 47.6 µM | GI50 (RXF 393 renal): 21.1 µM | TGI (RXF 393 renal): 46.5 µM | GI50 (SF-539 CNS): 18.1 µM | TGI (SF-539 CNS): 35.7 µM | GI50 (SK-MEL-28 melanoma): 19.4 µM | TGI (SK-MEL-28 melanoma): 46.5 µM | GI50 (SW-620 colon): 19.5 µM | TGI (SW-620 colon): 50.1 µM

CON(C)C(=O)C(C)NC(=O)OCc1ccccc1 (centres undefined)
TGI (EKVX NSCLC): > 100 µM | TGI (HCC-2998 colon): > 100 µM | TGI (K-562 leukemia): > 100 µM | TGI (OVCAR-5 ovarian): > 100 µM | TGI (RXF 393 renal): > 100 µM | TGI (SF-539 CNS): > 100 µM | TGI (SK-MEL-28 melanoma): > 100 µM | TGI (SW-620 colon): > 100 µM

O=c1oc2ccccc2c(O)c1C=NC(=S)c1ccncc1
TGI (COLO 205 colon): > 100 µM | TGI (EKVX NSCLC): > 100 µM | TGI (HCC-2998 colon): > 100 µM | TGI (OVCAR-5 ovarian): > 100 µM | TGI (SF-539 CNS): > 100 µM | TGI (SK-MEL-28 melanoma): > 100 µM | TGI (SW-620 colon): > 100 µM | TGI (T-47D breast): > 100 µM

C/C(=N\O)c1ccc(Nc2cc(-n3nnc4ccccc43)nc3ccccc23)cc1
GI50 (COLO 205 colon): 9.47 µM | TGI (COLO 205 colon): > 39.2 µM | GI50 (EKVX NSCLC): 6.97 µM | TGI (EKVX NSCLC): > 28.9 µM | GI50 (K-562 leukemia): 5.32 µM | TGI (K-562 leukemia): > 100 µM | GI50 (OVCAR-5 ovarian): 8.49 µM | TGI (OVCAR-5 ovarian): > 37.3 µM | GI50 (SF-539 CNS): 19 µM | TGI (SF-539 CNS): 44.7 µM | GI50 (SK-MEL-28 melanoma): 16.9 µM | TGI (SK-MEL-28 melanoma): > 69 µM | GI50 (SW-620 colon): 11.6 µM | TGI (SW-620 colon): 39.4 µM | GI50 (T-47D breast): 8.23 µM | TGI (T-47D breast): > 34.7 µM

C/C(=N/N(C=O)C[n+]1ccccc1)C(CN(CC(C)C)CC(C)C)C(=O)Nc1ccc(C)cc1C (centres undefined)
TGI (COLO 205 colon): > 100 µM | TGI (EKVX NSCLC): > 100 µM | TGI (HCC-2998 colon): > 100 µM | TGI (K-562 leukemia): > 100 µM | TGI (OVCAR-5 ovarian): > 100 µM | TGI (RXF 393 renal): > 100 µM | TGI (SF-539 CNS): > 100 µM | TGI (SK-MEL-28 melanoma): > 100 µM | TGI (SW-620 colon): > 100 µM
